Reference: patent US5834457A, “Method of modulating radical formation by mutant cuznsod enzymes” (The Regents of the University of California, priority 1996, dated 1998)

Key:
[1] = Hydroxyl radical production from H2O2 by the enzymes or free copper, EPR of DMPO-OH adduct; type: biochemical; conditions: for hydroxyl radical production (double integration of DMPO-OH signal): 1.25 μM protein or 2.5 μM CuSO4, 45 mM DMPO, 30 mM H2O2, pH 7.4
Description: Hydroxyl radical formation by mutant and wild type CuZnSODs was determined by measuring the amount of adduct formed when the radical scavenging agent 5,5'-dimethyl-1-pyrroline N-oxide (DMPO) was added to the hydroxyl radical forming reaction. The amount of the DMPO-OH radical adduct formed was determined by measurement of the unique EPR spectra signals of the adduct.
30 mM hydrogen peroxide was injected to start the reaction. […] EPR spectra were recorded on a Bruker ER 200 D at room temperature, operated at 9.5 GHz with a modulation frequency of 100 KHz.
The samples were prepared and handled, and all measurements executed, in a strictly oxygen-free atmosphere, to prevent radical scavenging by molecular oxygen. Buffers were treated with Chelex 100 (Biorad) to eliminate the possibility of contamination by trace metals. […] An aqueous flat cell (Wilmad) was used to hold the samples.

[2] = tested on: CSM 14.1 cells expressing mutant CuZnSODs A4V, G37R, G41D, G85R; experiment: Neural cell culture model of FALS: apoptosis/viability after serum withdrawal; type: cell-based, rat; conditions: DDC 25-100 μM, all four mutants
Description: (§1) The conditionally-immortalized rat nigral neural cell line CSM 14.1 (M. Durand, et al., Soc. Neurosci. Abs. 16:40 (1990); and L. T. Zhong, et al., Proc. Natl. Acad. Sci. U.S.A. 90:4533 (1993)) was transfected with vectors carrying wild type CuZnSOD or the mutant CuZnSODs A4V, G37R, G41D, or G85R.
(§2) Next the […] efficacy of DDC was tested. Temperature-sensitive nigral neural cells (SCM 14.1) were transfected with wild type and A4V, G37R, G85R, and G41D mutant CuZnSOD constructs by methods described previously (Rabizadeh (1995), supra). Following selection in puromycin (7 μg/ml), cells were plated onto 96-well plates.
(§3) This was calculated as follows:
(§4) viability=[Vm(x)-Vm(0)]/[Vc(0)-Vm(0)]
(§5) Standard errors were computed by the delta method for computing the asymptotic standard error for the estimate of a nonlinear function (D. Colquhoun, Lectures on Biostatistics (Clarendon Press, 1971) pp. 39-42).

[3] = tested on: CSM 14.1 cells overexpressing wild type CuZnSOD; experiment: as above; type: cell-based, rat
Description: as §1, §2, §3, §4, §5

CSM 14.1 cells = experiment: Toxicity of DDC in transfected neural cells, all groups; type: cell-based, rat; conditions: DDC 1 mM or greater
Description: as §1, §2

CuZnSOD mutant A4V: FALS-associated mutant human CuZnSOD A4V, recombinant, expressed in yeast
hydroxyl radical production (double integration of DMPO-OH signal) [1]: 15.6 µM
DMPO-OH signal relative to the wild type CuZnSOD signal ([1]; fully metallated enzyme, mean ± spread): 3.0±1.1 times
range of DMPO-OH signal relative to the wild type CuZnSOD signal ([1]; fully metallated enzyme, range over experiments): 2.1-5.7 times

wild type CuZnSOD: recombinant human wild type copper-zinc superoxide dismutase expressed in Saccharomyces cerevisiae
hydroxyl radical production (double integration of DMPO-OH signal) [1]: 3.2 µM

CuZnSOD mutant G93A: FALS-associated mutant human CuZnSOD G93A, recombinant, expressed in yeast
hydroxyl radical production (double integration of DMPO-OH signal) [1]: 6.5 µM

O=S(=O)([O-])[O-].[Cu+2] [CuSO4]
hydroxyl radical production (double integration of DMPO-OH signal) [1]: 1.9 µM

CCN(CC)C(=S)S [DDC, Diethyldithiocarbamate]
inhibition of apoptosis induced by mutant CuZnSODs [2]: 30-70%
effect on viability ([3]; DDC 100 μM, 60 hours, serum-free media): no significant effect
effect on cell viability ([3]; DDC 500 μM): decreased the viability
effect on apoptosis ([3]; DDC 25-100 μM, serum withdrawal): no effect
toxicity in all groups (CSM 14.1 cells): toxic
